Data taken from article PMC12214830, “The human RIF1-Long isoform interacts with BRCA1 to promote recombinational fork repair under DNA replication stress” (Nature Communications, 2025).

What was measured:
[1] = tested on: tandem BRCT domains of 53BP1; experiment: fluorescence polarisation, tandem BRCT domains of 53BP1; format: binding; conditions: peptide 200 nM, 25 mM HEPES pH 7.5, 200 mM NaCl
Procedure: (§1) Recombinant BRCT2 domain proteins were expressed as N-terminally HIS-SUMO tagged constructs from a modified pET15b vector in Escherichia coli BL21(DE3) host strain (Novagen). Cell pellets were re-suspended in lysis buffer containing 50 mM HEPES pH 7.5, 200 mM NaCl, 0.5 mM TCEP and supplemented with 10 U DNASE Turbo (ThermoFisher), then disrupted by sonication and the resulting lysate clarified by centrifugation at 40,000 × g for 60 min at 4 °C. […]
(§2) For Fluorescence Polarisation experiments, a Superdex 75 16/60 size exclusion column (GE Healthcare) was used to purify the His6-SUMO-BRCT2 proteins to homogeneity in 25 mM HEPES pH 7.5, 200 mM NaCl, 1 mM EDTA, 0.25 mM TCEP, 0.02% (v/v) Tween-20.
(§3) Fluorescein-labelled peptides (Flu-RIF1pS2265 Flu-[…](pS)PKFKSSK, Flu-BRIP1pS990 Flu-[…](pS)PTFNKQT and Flu-H2AXpS140 Flu-[…](pS)QEY, where (pS) is phosphorylated Serine) (Peptide Protein Research Ltd, Bishops Waltham, UK) at a concentration of 200 nM, were incubated at room temperature with increasing concentrations of His6-SUMO-BRCT2 protein in 25 mM HEPES pH 7.5, 200 mM NaCl, 1 mM EDTA, 0.25 mM TCEP, 0.02% (v/v) Tween-20 in a black 96-well polypropylene plate (VWR, Lutterworth, UK). […] Fluorescence polarisation was measured in a CLARIOstar multimode microplate reader (BMG Labtech GmbH, Offenburg, Germany). […]

[2] = tested on: tandem BRCT domains of TOPBP1; experiment: fluorescence polarisation, tandem BRCT domains of TOPBP1; format: binding; conditions: peptide 200 nM, 25 mM HEPES pH 7.5, 200 mM NaCl
Procedure: as §1, §2, §3

[3] = tested on: BRCA1-BRCT domain (His6-SUMO-BRCT2); experiment: fluorescence polarisation, tandem BRCT domains of BRCA1; format: binding, human
Procedure: Recombinant BRCT2 domain proteins were expressed as N-terminally HIS-SUMO tagged constructs from a modified pET15b vector in Escherichia coli BL21(DE3) host strain (Novagen). Cell pellets were re-suspended in lysis buffer containing 50 mM HEPES pH 7.5, 200 mM NaCl, 0.5 mM TCEP and supplemented with 10 U DNASE Turbo (ThermoFisher), then disrupted by sonication and the resulting lysate clarified by centrifugation at 40,000 × g for 60 min at 4 °C. The supernatant was applied to a 5 ml HiTrap TALON crude column (GE Healthcare, Little Chalfont, UK), washed first with buffer containing 50 mM HEPES pH 7.5, 1000 mM NaCl, 0.5 mM TCEP, followed by lysis buffer supplemented with 10 mM imidazole, with any retained protein then eluted by application of the same buffer supplemented with 250 mM imidazole. The eluted protein was concentrated before further purification by size exclusion chromatography.
as §2
Fluorescein-labelled peptides (Flu-RIF1pS2265 Flu-[…](pS)PKFKSSK, Flu-BRIP1pS990 Flu-[…](pS)PTFNKQT and Flu-H2AXpS140 Flu-[…](pS)QEY, where (pS) is phosphorylated Serine) (Peptide Protein Research Ltd, Bishops Waltham, UK) at a concentration of 200 nM, were incubated at room temperature with increasing concentrations of His6-SUMO-BRCT2 protein in 25 mM HEPES pH 7.5, 200 mM NaCl, 1 mM EDTA, 0.25 mM TCEP, 0.02% (v/v) Tween-20 in a black 96-well polypropylene plate (VWR, Lutterworth, UK). Incubation with Lambda phosphatase (NEB, Hitchin, UK) supplemented with 1 mM MnCl2 was used to remove the phosphorylation on the peptides. Fluorescence polarisation was measured in a CLARIOstar multimode microplate reader (BMG Labtech GmbH, Offenburg, Germany). Binding curves represent the mean of 4 independent experiments, with error bars of 1 standard deviation. […]

[4] = tested on: tandem BRCT domains of MDC1; experiment: fluorescence polarisation, tandem BRCT domains of MDC1; format: binding; conditions: peptide 200 nM, 25 mM HEPES pH 7.5, 200 mM NaCl
Procedure: as §1, §2, §3

Substance: Flu-GYGFLSPGSR(pS)PKFKSSK [RIF1-L phosphoS^2265PKF peptide, fluorescein-labelled RIF1-L-derived phosphopeptide]
- binding to tandem BRCT domains of 53BP1 [1]: did not bind
- binding to tandem BRCT domains of TOPBP1 [2]: did not bind
- binding to BRCA1-BRCT ([3]; fluorescein-labelled peptide 200 nM, 25 mM HEPES pH 7.5, 200 mM NaCl, room temperature, mean of 4 independent experiments): bound strongly
- interaction affinity relative to BRIP1 phospho-peptide ([3]; peptide 200 nM, 25 mM HEPES pH 7.5, 200 mM NaCl): comparable to that for a phospho-peptide from BRIP1
- binding to BRCA1-BRCT after λ phosphatase ([3]; peptide treated with Lambda phosphatase, 1 mM MnCl2): abolished binding
- binding to tandem BRCT domains of MDC1 [4]: did not bind
